Experimental data taken from patent publication US12060385B2, “Compounds for RNA capping and uses thereof” (GUANGZHOU HENOVCOM BIOSCIENCE CO., LTD., priority 2022, dated 2024).

tested on: mRNA; assay: Capping efficiency of mRNA with different cap analogs by LC-MS; assay type: biochemical; settings: LC-MS after RNase H cleavage
Procedure: In a PCR machine, the annealing was performed using the following gradients: • 95° C. for 5 min; 65° C. for 2 min; 55° C. for 2 min; 40° C. for 2 min; 22° C. for 2 min • 5) Pre-treatment of magnetic beads were bound with probes.
100 μL of magnetic beads were placed on a magnetic rack and the preservation solution was removed. 100 μL of 1*BW solution was added, mixed well, and placed on the magnetic rack, and the supernatant was then removed. The washing step was repeated three times. 100 μL of wash A buffer was added, mixed well, and placed on the magnetic rack, and the supernatant was then removed. The washing step was repeated three times. 100 μL of wash B buffer was added, mixed well, and placed on the magnetic rack, and the supernatant was then removed. The washing step was repeated three times. After 120 μL of sample was added, the sample and the magnetic beads solution were incubated for 30 min at room temperature, and they were gently mixed well while incubation. • 6) mRNA was spliced to obtain 5′ end mRNA single stranded sequence and binding with the probe.
20 μL of RNase H (5 U/mL) was added, incubated for 3 hours at 37° C., mixed once every half an hour. 100 μL of 1*BW solution was added, mixed well, and placed on the magnetic rack, and then the supernatant was removed. The washing step was repeated three times. Subsequently, 100 μL of deionized aqueous solution was added, mixed well, and placed on the magnetic rack, and the supernatant was then removed. The washing step was repeated three times. 100 μL of 75% methanol at 80° C. was added, and the mixture was incubated at 80° C. on a heater plate for 3 min, and placed on the magnetic rack, and the supernatant was then pipetted. The sample was dried using an evaporative centrifuge at room temperature for 45 min to 10 μL, and then resuspended in 50 μL of 100 μM EDTA solution in 1% MeOH for LC-MS analysis.
The capping efficiencies of mRNA with different cap analogs were determined by LC-MS, and some compounds of the results were shown in Table 4.

SMILES	Capping efficiency
CO[C@@H]1[C@H](OP(=O)([O-])OC[C@H]2O[C@@H](n3cnc4c(=O)[nH]c(N)nc43)[C@H](O)[C@@H]2O)[C@@H](COP(=O)(O)OP(=O)(O)OP(=O)(O)OC[C@H]2OC(n3c[n+](C)c4c(=O)[nH]c(N)nc43)[C@H](O)[C@@H]2CC(=O)N(C)C)O[C@H]1n1cnc2c(N)ncnc21 (stereo partly shown) [Compound 4]	A (100% > A ≥ 95%)
CO[C@@H]1[C@H](OP(=O)([O-])OC[C@H]2O[C@@H](n3cnc4c(=O)[nH]c(N)nc43)[C@H](O)[C@@H]2O)[C@@H](COP(=O)(O)OP(=O)(O)OP(=O)(O)OC[C@H]2O[C@@H](n3c[n+](C)c4c(=O)[nH]c(N)nc43)[C@H](O)[C@@H]2CNC(C)=O)O[C@H]1n1cnc2c(N)ncnc21 [Compound 6]	A (100% > A ≥ 95%)

target: T7 RNA Polymerase (Escherichia phage T7, UniProt P00573); assay: not given; assay type: biochemical; settings: 20 μL transcription system, Cap1 Analog 4 mM, 37° C. 2 to 3 hours
Procedure: • 1) A plasmid was linearized and the DNA template was purified. • 2) mRNA was synthesized in vitro with 51 types of capping structures of the present disclosure, or without any cap analogues. CleanCap®AG (3′OMe) (Trilink, N-7413) was applied as positive control group, uncapped mRNA was negative control group, and DNAase/RNase-Free water was a blank control group.
The system was incubated for 2 to 3 hours at 37° C. and digested by TURBO DNase for 15 min LiCl was used to precipitate mRNA for at least 30 min, or overnight, mRNA precipitates were then washed with 75% ethanol. After ethanol was quickly volatilized, mRNA was re-solubilized with RNase-Free water. • 3) The transcribed products were purified and the transcription yields were calculated.

Chain of T7 RNA Polymerase (P00573 whole entry): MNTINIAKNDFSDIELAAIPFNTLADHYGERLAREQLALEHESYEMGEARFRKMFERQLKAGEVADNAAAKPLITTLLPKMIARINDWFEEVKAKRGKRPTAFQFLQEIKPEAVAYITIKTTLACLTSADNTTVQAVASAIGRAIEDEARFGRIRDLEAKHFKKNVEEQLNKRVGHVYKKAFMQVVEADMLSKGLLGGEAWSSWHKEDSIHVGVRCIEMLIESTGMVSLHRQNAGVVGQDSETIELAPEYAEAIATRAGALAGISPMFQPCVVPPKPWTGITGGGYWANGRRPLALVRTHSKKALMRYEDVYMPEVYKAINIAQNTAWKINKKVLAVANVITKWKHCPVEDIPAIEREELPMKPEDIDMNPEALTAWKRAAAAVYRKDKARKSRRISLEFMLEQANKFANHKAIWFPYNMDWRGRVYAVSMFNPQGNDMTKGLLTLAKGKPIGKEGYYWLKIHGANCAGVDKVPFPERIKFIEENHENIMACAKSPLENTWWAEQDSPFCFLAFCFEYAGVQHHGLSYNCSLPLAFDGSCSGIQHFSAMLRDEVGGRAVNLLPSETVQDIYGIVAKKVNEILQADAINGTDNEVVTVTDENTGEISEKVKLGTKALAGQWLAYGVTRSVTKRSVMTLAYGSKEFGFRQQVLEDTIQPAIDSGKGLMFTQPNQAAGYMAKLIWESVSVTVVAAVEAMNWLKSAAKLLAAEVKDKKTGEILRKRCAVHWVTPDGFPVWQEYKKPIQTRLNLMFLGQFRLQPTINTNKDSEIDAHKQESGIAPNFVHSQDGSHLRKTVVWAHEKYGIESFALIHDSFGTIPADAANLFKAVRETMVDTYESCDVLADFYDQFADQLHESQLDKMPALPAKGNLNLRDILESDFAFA

SMILES	Final product mass obtained from the 20 μL of mRNA transcription system
CO[C@@H]1[C@H](OP(=O)([O-])OC[C@H]2O[C@@H](n3cnc4c(=O)[nH]c(N)nc43)[C@H](O)[C@@H]2O)[C@@H](COP(=O)(O)OP(=O)(O)OP(=O)(O)OC[C@H]2OC(n3c[n+](C)c4c(=O)[nH]c(N)nc43)[C@H](O)[C@@H]2CC(=O)N(C)C)O[C@H]1n1cnc2c(N)ncnc21 (stereo partly shown) [Compound 4]	78 µg
CO[C@@H]1[C@H](OP(=O)([O-])OC[C@H]2O[C@@H](n3cnc4c(=O)[nH]c(N)nc43)[C@H](O)[C@@H]2O)[C@@H](COP(=O)(O)OP(=O)(O)OP(=O)(O)OC[C@H]2O[C@@H](n3c[n+](C)c4c(=O)[nH]c(N)nc43)[C@H](O)[C@@H]2CNC(C)=O)O[C@H]1n1cnc2c(N)ncnc21 [Compound 6]	103 µg
CCCCC(=O)NC[C@H]1[C@@H](O)[C@H](n2c[n+](C)c3c(=O)[nH]c(N)nc32)O[C@@H]1COP(=O)(O)OP(=O)(O)OP(=O)(O)OC[C@H]1O[C@@H](n2cnc3c(N)ncnc32)[C@H](OC)[C@@H]1OP(=O)(O)OC[C@H]1O[C@@H](n2cnc3c(=O)[nH]c(N)nc32)[C@H](O)[C@@H]1O [Compound 305]	92 µg
CO[C@@H]1[C@H](OP(=O)([O-])OC[C@H]2O[C@@H](n3cnc4c(=O)[nH]c(N)nc43)[C@H](O)[C@@H]2O)[C@@H](COP(=O)(O)OP(=O)(O)OP(=O)(O)OC[C@H]2O[C@@H](n3c[n+](C)c4c(=O)[nH]c(N)nc43)[C@H](O)[C@@H]2CNC(=O)c2ccccc2)O[C@H]1n1cnc2c(N)ncnc21 [Compound 309]	112 µg
CO[C@@H]1[C@H](OP(=O)([O-])OC[C@H]2O[C@@H](n3cnc4c(=O)[nH]c(N)nc43)[C@H](O)[C@@H]2O)[C@@H](COP(=O)(O)OP(=O)(O)OP(=O)(O)OC[C@H]2O[C@@H](n3c[n+](C)c4c(=O)[nH]c(N)nc43)[C@H](O)[C@@H]2CNS(C)(=O)=O)O[C@H]1n1cnc2c(N)ncnc21 [Compound 311]	88 µg
CO[C@@H]1[C@H](OP(=O)(O)OC[C@H]2O[C@@H](n3cnc4c(=O)[nH]c(N)nc43)[C@H](O)[C@@H]2O)[C@@H](COP(=O)(O)OP(=O)(O)OP(=O)(O)OC[C@H]2O[C@@H](n3c[n+](C)c4c(=O)[nH]c(N)nc43)[C@H](O)[C@@H]2CCNC(C)=O)O[C@H]1n1cnc2c(N)ncnc21 [Compound 319]	102 µg
COC(=O)NC[C@H]1[C@@H](O)[C@H](n2c[n+](C)c3c(=O)[nH]c(N)nc32)O[C@@H]1COP(=O)(O)OP(=O)(O)OP(=O)(O)OC[C@H]1O[C@@H](n2cnc3c(N)ncnc32)[C@H](OC)[C@@H]1OP(=O)(O)OC[C@H]1O[C@@H](n2cnc3c(=O)[nH]c(N)nc32)[C@H](O)[C@@H]1O [Compound 323]	114 µg
CO[C@@H]1[C@H](OP(=O)(O)OC[C@H]2O[C@@H](n3cnc4c(=O)[nH]c(N)nc43)[C@H](O)[C@@H]2O)[C@@H](COP(=O)(O)CP(=O)(O)OP(=O)(O)OC[C@H]2O[C@@H](n3c[n+](C)c4c(=O)[nH]c(N)nc43)[C@H](O)[C@@H]2CNC(C)=O)O[C@H]1n1cnc2c(N)ncnc21 [Compound 329]	110 µg
CNC(=O)C[C@H]1[C@@H](O)[C@H](n2c[n+](C)c3c(=O)[nH]c(N)nc32)O[C@@H]1COP(=O)(O)OP(=O)(O)OP(=O)(O)OC[C@H]1O[C@@H](n2cnc3c(N)ncnc32)[C@H](OC)[C@@H]1OP(=O)(O)OC[C@H]1O[C@@H](n2ccc(=O)[nH]c2=O)[C@H](O)[C@@H]1O [Compound 394]	107 µg
CNC(=O)CC[C@H]1[C@@H](O)[C@H](n2c[n+](C)c3c(=O)[nH]c(N)nc32)O[C@@H]1COP(=O)(O)OP(=O)(O)OP(=O)(O)OC[C@H]1O[C@@H](n2cnc3c(N)ncnc32)[C@H](OC)[C@@H]1OP(=O)(O)OC[C@H]1O[C@@H](n2cnc3c(=O)[nH]c(N)nc32)[C@H](O)[C@@H]1O [Compound 415]	108 µg
CO[C@@H]1[C@H](OP(=O)(O)OC[C@H]2O[C@@H](n3cnc4c(=O)[nH]c(N)nc43)[C@H](O)[C@@H]2O)[C@@H](COP(=O)(O)CP(=O)(O)OP(=O)(O)OC[C@H]2O[C@@H](n3c[n+](C)c4c(=O)[nH]c(N)nc43)[C@H](O)[C@@H]2CC(=O)N(C)C)O[C@H]1n1cnc2c(N)ncnc21 [Compound 421]	98 µg
CO[C@@H]1[C@H](OP(=O)(O)OC[C@H]2O[C@@H](n3cnc4c(=O)[nH]c(N)nc43)[C@H](O)[C@@H]2O)[C@@H](COP(=O)(O)OP(=O)(O)OP(=O)(O)OP(=O)(O)OC[C@H]2O[C@@H](n3c[n+](C)c4c(=O)[nH]c(N)nc43)[C@H](O)[C@@H]2CC(=O)N(C)C)O[C@H]1n1cnc2c(N)ncnc21 [Compound 437]	114 µg
CO[C@@H]1[C@H](OP(=O)([O-])OC[C@H]2O[C@@H](n3cnc4c(=O)[nH]c(N)nc43)[C@H](O)[C@@H]2O)[C@@H](CSP(=O)(O)OP(=O)(O)OP(=O)(O)OC[C@H]2O[C@@H](n3c[n+](C)c4c(=O)[nH]c(N)nc43)[C@H](O)[C@@H]2CNC(C)=O)O[C@H]1n1cnc2c(N)ncnc21 [Compound 561]	108 µg
CNC(=O)OC[C@H]1[C@@H](O)[C@H](n2c[n+](C)c3c(=O)[nH]c(N)nc32)O[C@@H]1COP(=O)(O)OP(=O)(O)OP(=O)(O)OC[C@H]1O[C@@H](n2cnc3c(N)ncnc32)[C@H](OC)[C@@H]1OP(=O)([O-])OC[C@H]1O[C@@H](n2cnc3c(=O)[nH]c(N)nc32)[C@H](O)[C@@H]1O [Compound 631]	105 µg
CO[C@@H]1[C@H](OP(=O)([O-])OC[C@H]2O[C@@H](n3cnc4c(=O)[nH]c(N)nc43)[C@H](O)[C@@H]2O)[C@@H](COP(=O)(O)OP(=O)(O)OP(=O)(O)OC[C@H]2O[C@@H](n3c[n+](C)c4c(=O)[nH]c(N)nc43)[C@H](O)[C@@H]2CN=[N+]=[N-])O[C@H]1n1cnc2c(N)ncnc21 [Compound 635]	118 µg
COC[C@H]1[C@@H](OC)[C@H](n2c[n+](C)c3c(=O)[nH]c(N)nc32)O[C@@H]1COP(=O)(O)OP(=O)(O)OP(=O)(O)OC[C@H]1O[C@@H](n2cnc3c(N)ncnc32)[C@H](OC)[C@@H]1OP(=O)(O)OC[C@H]1O[C@@H](n2cnc3c(=O)[nH]c(N)nc32)[C@H](O)[C@@H]1O [Compound 637]	88 µg
CO[C@@H]1[C@H](OP(=O)(O)OC[C@H]2O[C@@H](n3cnc4c(=O)[nH]c(N)nc43)[C@H](O)[C@@H]2O)[C@@H](COP(=O)(O)OP(=O)(O)OP(=O)(O)OC[C@H]2O[C@@H](n3c[n+](C)c4c(=O)[nH]c(N)nc43)[C@H](O)[C@@H]2CNC(=O)N(C)C)O[C@H]1n1cnc2c(N)ncnc21 [Compound 639]	94 µg
CO[C@@H]1[C@H](CNC(C)=O)[C@@H](COP(=O)(O)OP(=O)(O)OP(=O)(O)OC[C@H]2O[C@@H](n3cnc4c(N)ncnc43)[C@H](OC)[C@@H]2OP(=O)(O)OC[C@H]2O[C@@H](n3cnc4c(=O)[nH]c(N)nc43)[C@H](O)[C@@H]2O)O[C@H]1n1c[n+](C)c2c(=O)[nH]c(N)nc21 [Compound 641]	89 µg
CCCCCCNC(=O)C[C@H]1[C@@H](O)[C@H](n2c[n+](C)c3c(=O)[nH]c(N)nc32)O[C@@H]1COP(=O)(O)OP(=O)(O)OP(=O)(O)OC[C@H]1O[C@@H](n2cnc3c(N)ncnc32)[C@H](OC)[C@@H]1OP(=O)([O-])OC[C@H]1O[C@@H](n2cnc3c(=O)[nH]c(N)nc32)[C@H](O)[C@@H]1O [Compound 643]	121 µg
CNC(=O)C[C@H]1[C@@H](OC)[C@H](n2c[n+](C)c3c(=O)[nH]c(N)nc32)O[C@@H]1COP(=O)(O)OP(=O)(O)OP(=O)(O)OC[C@H]1O[C@@H](n2cnc3c(N)ncnc32)[C@H](OC)[C@@H]1OP(=O)(O)OC[C@H]1O[C@@H](n2cnc3c(=O)[nH]c(N)nc32)[C@H](O)[C@@H]1O [Compound 645]	116 µg
